Measured values taken from patent US11485731B2, “Compounds and methods useful in the treatment of a PRMT5-mediated disorder” (ARGONAUT THERAPEUTICS LIMITED, priority 2017, dated 2022).

Biological target: human PRMT5/MEP50 (Homo sapiens (Human), UniProt O14744)
Test: PRMT5 chemiluminescent assay
Assay type: biochemical
Conditions: human PRMT5/MEP50 expressed in HEK293 cells; biotinylated histone peptides; Histone H4 monomethyl R3 antibody; chemiluminescent readout
Description: A PRMT5 chemiluminescent assay was used to measure the IC50 activity of PRMT5 of the compounds of Examples 1A to 7 above. Biotinylated histone peptides were synthesized and attached to 384-well plates. Compound serial dilutions were performed and added to the assay plate. Histone H4 monomethyl R3 antibody was obtained from Abcam. A master mix for each well was prepared and human PRMT5/MEP50 (expressed in HEK293 cells) diluted in assay buffer to a concentration of 5 ng/μL. The reaction was incubated and slowly rotated for 60 minutes at the point of PRMT5/MEP50 addition. The supernatant from the wells was removed and blocking buffer was added to each well and rotated for 10 minutes. The primary antibody was diluted and added to every well for 60 minutes, before it was removed and the wells washed. The horse raddish peroxidase (HRP)-coupled secondary antibody was diluted and added to each well with an incubation time of 30 minutes. The HRP chemiluminescent substrate was added to every well. The plate was read on a Flourstar Omega BMG Labtech instrument (Ortenberg, Germany) and the analysis of IC50 was performed using the Flourstar Omega BMG Labtech software.

Chain of human PRMT5/MEP50 (O14744 whole entry): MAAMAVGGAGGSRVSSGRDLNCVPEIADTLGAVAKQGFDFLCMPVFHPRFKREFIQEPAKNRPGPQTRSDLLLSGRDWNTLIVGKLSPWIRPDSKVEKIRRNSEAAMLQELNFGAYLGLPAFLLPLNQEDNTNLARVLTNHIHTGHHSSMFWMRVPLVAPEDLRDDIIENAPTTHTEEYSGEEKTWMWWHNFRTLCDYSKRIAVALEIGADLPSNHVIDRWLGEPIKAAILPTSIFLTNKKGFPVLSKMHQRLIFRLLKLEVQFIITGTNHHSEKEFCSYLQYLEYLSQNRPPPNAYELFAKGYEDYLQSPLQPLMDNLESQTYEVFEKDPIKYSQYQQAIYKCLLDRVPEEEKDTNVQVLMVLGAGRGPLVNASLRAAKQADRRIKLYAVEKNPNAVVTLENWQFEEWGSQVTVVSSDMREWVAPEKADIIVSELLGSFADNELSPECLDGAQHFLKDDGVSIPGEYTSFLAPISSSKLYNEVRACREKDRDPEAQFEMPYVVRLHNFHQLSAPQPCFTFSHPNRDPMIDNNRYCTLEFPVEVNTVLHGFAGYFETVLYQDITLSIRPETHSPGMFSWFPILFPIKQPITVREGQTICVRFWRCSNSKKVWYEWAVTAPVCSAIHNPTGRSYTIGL
Chain of human PRMT5/MEP50 (Q9BQA1 whole entry partner): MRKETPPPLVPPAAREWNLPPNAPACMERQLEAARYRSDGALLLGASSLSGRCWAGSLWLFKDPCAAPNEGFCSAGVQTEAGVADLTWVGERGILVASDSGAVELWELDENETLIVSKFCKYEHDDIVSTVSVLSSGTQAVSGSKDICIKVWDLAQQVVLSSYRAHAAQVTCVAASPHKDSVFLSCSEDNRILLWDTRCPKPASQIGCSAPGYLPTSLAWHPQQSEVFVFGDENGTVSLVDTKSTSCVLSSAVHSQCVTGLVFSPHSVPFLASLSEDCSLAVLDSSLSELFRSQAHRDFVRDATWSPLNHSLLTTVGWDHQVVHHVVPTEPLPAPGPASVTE

IC50 [nM] | Compound
422 | O=C(NC[C@H](O)CN1CCc2ccccc2C1)N1CCS(=O)(=O)C(c2ccccc2)C1 (stereo partly drawn) [Example 1CG, N-((S)-3-(3,4-dihydroisoquinolin-2(1H)-yl)-2-hydroxypropyl)-2-phenylthiomorpholine-4-carboxamide 1,1-dioxide]
1920 | O=C(NC[C@H](O)CN1CCc2ccccc2C1)N1CCCC(N2CCN(Cc3ccccc3)CC2)C1 (stereo partly drawn) [Example 1CH, 3-(4-benzylpiperazin-1-yl)-N-((S)-3-(3,4-dihydroisoquinolin-2(1H)-yl)-2-hydroxypropyl)piperidine-1-carboxamide]
27 | O=C(NC[C@H](O)CN1CCc2ccccc2C1)N1CC[C@@H](c2ccccc2)C1 [Example 1CI, (S)-N-((S)-3-(3,4-dihydroisoquinolin-2(1H)-yl)-2-hydroxypropyl)-3-phenylpyrrolidine-1-carboxamide]
58 | O=C(NC[C@H](O)CN1CCc2ccccc2C1)N1CC[C@H](c2ccccc2)C1 [Example 1CJ, (R)-N-((S)-3-(3,4-dihydroisoquinolin-2(1H)-yl)-2-hydroxypropyl)-3-phenylpyrrolidine-1-carboxamide]
329 | O=C(NCC(O)CN1CCc2ccccc2C1)N1CCCC(O)C1 (stereo not drawn) [Example 1CK, N-(3-(3,4-dihydroisoquinolin-2(1H)-yl)-2-hydroxypropyl)-3-hydroxypiperidine-1-carboxamide]
1100 | O=C(NCC(O)CN1CCc2ccccc2C1)N1CCCC(c2ccccc2)CC1 (stereo not drawn) [Example 1CN, N-(3-(3,4-dihydroisoquinolin-2(1H)-yl)-2-hydroxypropyl)-4-phenylazepane-1-carboxamide]
17 | O=C(NCC(O)CN1CCc2ccccc2C1)N1CCCCC(c2ccccc2)C1 (stereo not drawn) [Example 1CO, N-(3-(3,4-dihydroisoquinolin-2(1H)-yl)-2-hydroxypropyl)-3-phenylazepane-1-carboxamide]
1870 | O=C(NCC(O)CN1CCc2ccccc2C1)N1CCN(Cc2ccccc2)CC1 (stereo not drawn) [Example 1D, 4-benzyl-N-[2-hydroxy-3-(1,2,3,4-tetrahydroisoquinolin-2-yl)propyl]piperazine-1-carboxamide]
457 | O=C(NCC(O)CN1CCc2ccccc2C1)N1CCC(c2ccccc2)CC1 (stereo not drawn) [Example 1F, N-[2-hydroxy-3-(1,2,3,4-tetrahydroisoquinolin-2-yl)propyl]-4-phenylpiperidine-1-carboxamide]
568 | O=C(NCC(O)CN1CCc2ccccc2C1)N1CCC(Oc2ccccc2)CC1 (stereo not drawn) [Example 1G, N-[2-hydroxy-3-(1,2,3,4-tetrahydroisoquinolin-2-yl)propyl]-4-phenoxypiperidine-1-carboxamide]
267 | O=C(NCC(O)CN1CCc2ccccc2C1)N1CCCC(Oc2ccccc2)C1 (stereo not drawn) [Example 1H, N-[2-hydroxy-3-(1,2,3,4-tetrahydroisoquinolin-2-yl)propyl]-3-phenoxypiperidine-1-carboxamide]
208 | O=C(NCC(O)CN1CCc2ccccc2C1)N1CCc2ccccc2C1 (stereo not drawn) [Example 1I, N-[2-hydroxy-3-(1,2,3,4-tetrahydroisoquinolin-2-yl)propyl]-1,2,3,4-tetrahydroisoquinoline-2-carboxamide]
320 | O=C(NCC(O)CN1CCc2ccccc2C1)N1CCCCc2ccccc21 (stereo not drawn) [Example 1J, N-[2-hydroxy-3-(1,2,3,4-tetrahydroisoquinolin-2-yl)propyl]-2,3,4,5-tetrahydro-1H-1-benzazepine-1-carboxamide]
1640 | O=C(NCC(O)CN1CCc2ccccc2C1)N1CCCCC1 (stereo not drawn) [Example 1L, N-[2-hydroxy-3-(1,2,3,4-tetrahydroisoquinolin-2-yl)propyl]piperidine-1-carboxamide]
6870 | O=C(NCC(O)CN1CCc2ccccc2C1)N1CCCC1 (stereo not drawn) [Example 1M, N-[2-hydroxy-3-(1,2,3,4-tetrahydroisoquinolin-2-yl)propyl]pyrrolidine-1-carboxamide]
221 | O=C(NCC(O)CN1CCc2ccccc2C1)N1CCCC(Nc2ccncc2)C1 (stereo not drawn) [Example 1P, N-(3-(3,4-dihydroisoquinolin-2(1H)-yl)-2-hydroxypropyl)-3-(pyridin-4-ylamino)piperidine-1-carboxamide]
276 | O=C(NCC(O)CN1CCc2ccccc2C1)N1CCC(Cc2ccccc2)CC1 (stereo not drawn) [Example 1Q, 4-benzyl-N-(3-(3,4-dihydroisoquinolin-2(1H)-yl)-2-hydroxypropyl)piperidine-1-carboxamide]
95 | O=C(NCC(O)CN1CCc2ccccc2C1)N1CCCN(c2ccccc2)CC1 (stereo not drawn) [Example 1S, N-(3-(3,4-dihydroisoquinolin-2(1H)-yl)-2-hydroxypropyl)-4-phenyl-1,4-diazepane-1-carboxamide]
40 | O=C(NCC(O)CN1CCc2ccccc2C1)N1CCCN(Cc2ccccc2)CC1 (stereo not drawn) [Example 1T, 4-benzyl-N-(3-(3,4-dihydroisoquinolin-2(1H)-yl)-2-hydroxypropyl)-1,4-diazepane-1-carboxamide]

More lines, now with the values behind:

Compound | IC50 [nM]
O=C(NC[C@H](O)CN1CCc2ccccc2C1)N1CCCC(N2CCCSCC2)C1 (stereo partly drawn) [Example 1CB, N-((S)-3-(3,4-dihydroisoquinolin-2(1H)-yl)-2-hydroxypropyl)-3-(1,4-thiazepan-4-yl)piperidine-1-carboxamide] | 337
O=C(NC[C@H](O)CN1CCc2ccccc2C1)N1CCCC(N2CCCOCC2)C1 (stereo partly drawn) [Example 1CC, N-((S)-3-(3,4-dihydroisoquinolin-2(1H)-yl)-2-hydroxypropyl)-3-(1,4-oxazepan-4-yl)piperidine-1-carboxamide] | 1640
O=C(NC[C@H](O)CN1CCc2ccccc2C1)N1CCC(N2CCOCC2)C1 (stereo partly drawn) [Example 1CD, N-((S)-3-(3,4-dihydroisoquinolin-2(1H)-yl)-2-hydroxypropyl)-3-morpholinopyrrolidine-1-carboxamide] | 12300
O=C(NC[C@H](O)CN1CCc2ccccc2C1)N1CCC(N2CCSCC2)C1 (stereo partly drawn) [Example 1CE, N-((S)-3-(3,4-dihydroisoquinolin-2(1H)-yl)-2-hydroxypropyl)-3-thiomorpholinopyrrolidine-1-carboxamide] | 3100
O=C(NC[C@H](O)CN1CCc2ccccc2C1)N1CCC(N2CCCSCC2)C1 (stereo partly drawn) [Example 1CF, N-((S)-3-(3,4-dihydroisoquinolin-2(1H)-yl)-2-hydroxypropyl)-3-(1,4-thiazepan-4-yl)pyrrolidine-1-carboxamide] | 376
CN1CCCN(C(=O)NCC(O)CN2CCc3ccccc3C2)CC1 (stereo not drawn) [Example 1CL, N-(3-(3,4-dihydroisoquinolin-2(1H)-yl)-2-hydroxypropyl)-4-methyl-1,4-diazepane-1-carboxamide] | 436
CC(=O)N1CCCN(C(=O)NCC(O)CN2CCc3ccccc3C2)CC1 (stereo not drawn) [Example 1CM, 4-acetyl-N-(3-(3,4-dihydroisoquinolin-2(1H)-yl)-2-hydroxypropyl)-1,4-diazepane-1-carboxamide] | 125
O=C(NCC(O)CN1CCc2ccccc2C1)N1CCCC(c2ccccc2)C1 (stereo not drawn) [Example 1E, N-[2-hydroxy-3-(1,2,3,4-tetrahydroisoquinolin-2-yl)propyl]-3-phenylpiperidine-1-carboxamide] | 8
O=C(NCC(O)CN1CCc2ccccc2C1)N1CCCCCC1 (stereo not drawn) [Example 1N, N-[2-hydroxy-3-(1,2,3,4-tetrahydroisoquinolin-2-yl)propyl]azepane-1-carboxamide] | 2380
O=C(NCC(O)CN1CCc2ccccc2C1)N1CCC(C(=O)N2CCOCC2)CC1 (stereo not drawn) [Example 1O, N-(3-(3,4-dihydroisoquinolin-2(1H)-yl)-2-hydroxypropyl)-4-(morpholine-4-carbonyl)piperidine-1-carboxamide] | 51
O=C(NCC(O)CN1CCc2ccccc2C1)N1CCC(C(=O)N2C3CCC2COC3)CC1 (stereo not drawn) [Example 1R, 4-(3-oxa-8-azabicyclo[3.2.1]octane-8-carbonyl)-N-(3-(3,4-dihydroisoquinolin-2(1H)-yl)-2-hydroxypropyl)piperidine-1-carboxamide] | 11
O=C(NCC(O)CN1CCc2ccccc2C1)N1CCSCC1 (stereo not drawn) [Example 1U, N-(3-(3,4-dihydroisoquinolin-2(1H)-yl)-2-hydroxypropyl)thiomorpholine-4-carboxamide] | 896
CN(C)C(=O)C1CN(C(=O)NCC(O)CN2CCc3ccccc3C2)C1 (stereo not drawn) [Example 1V, N^1-(3-(3,4-dihydroisoquinolin-2(1H)-yl)-2-hydroxypropyl)-N^3,N^3-dimethylazetidine-1,3-dicarboxamide] | 8540
O=C(NCC(O)CN1CCc2ccccc2C1)N1CC(C(=O)N2CCOCC2)C1 (stereo not drawn) [Example 1W, N-(3-(3,4-dihydroisoquinolin-2(1H)-yl)-2-hydroxypropyl)-3-(morpholine-4-carbonyl)azetidine-1-carboxamide] | 7390
O=C(NCC(O)CN1CCc2ccccc2C1)N1CC(C(=O)N2C3CCC2COC3)C1 (stereo not drawn) [Example 1X, 3-(3-oxa-8-azabicyclo[3.2.1]octane-8-carbonyl)-N-(3-(3,4-dihydroisoquinolin-2(1H)-yl)-2-hydroxypropyl)azetidine-1-carboxamide] | 376
O=C(NCC(O)CN1CCc2sccc2C1)N1CCCc2ccccc21 (stereo not drawn) [Example 1Y, N-(3-(6,7-dihydrothieno[3,2-c]pyridin-5(4H)-yl)-2-hydroxypropyl)-3,4-dihydroquinoline-1(2H)-carboxamide] | 236
O=C(NCC(O)CN1CCc2ccsc2C1)N1CCCc2ccccc21 (stereo not drawn) [Example 1Z, N-(3-(4,7-dihydrothieno[2,3-c]pyridin-6(5H)-yl)-2-hydroxypropyl)-3,4-dihydroquinoline-1(2H)-carboxamide] | 639
